Measurements: the OligoGym collection
Oligonucleotides are given in HELM: sugar(base)linkage, 5' to 3'; d 2'-deoxyribose, r ribose, m 2'-O-methylribose, p phosphate. ss, as = sense and antisense strand

target: UBE2D3; test: reporter assay of Huesken 2005; settings: siRNA
Further: test concentration or dose not given here.

Substance	normalised inhibition (eCFP-eYFP dual reporter) [%]
RNA1{r(G)p.r(U)p.r(C)p.r(C)p.r(A)p.r(G)p.r(U)p.r(U)p.r(G)p.r(G)p.r(G)p.r(G)p.r(A)p.r(U)p.r(G)p.r(A)p.r(U)p.r(A)p.r(U)p.d(T)p.d(T)}|RNA2{r(A)p.r(U)p.r(A)p.r(U)p.r(C)p.r(A)p.r(U)p.r(C)p.r(C)p.r(C)p.r(C)p.r(A)p.r(A)p.r(C)p.r(U)p.r(G)p.r(G)p.r(A)p.r(C)p.d(C)p.d(T)}$$$RNA1{StrandType:ss}|RNA2{StrandType:as}$	88.3
RNA1{r(G)p.r(U)p.r(G)p.r(G)p.r(U)p.r(C)p.r(G)p.r(C)p.r(C)p.r(U)p.r(G)p.r(C)p.r(U)p.r(U)p.r(U)p.r(A)p.r(A)p.r(C)p.r(A)p.d(T)p.d(T)}|RNA2{r(U)p.r(G)p.r(U)p.r(U)p.r(A)p.r(A)p.r(A)p.r(G)p.r(C)p.r(A)p.r(G)p.r(G)p.r(C)p.r(G)p.r(A)p.r(C)p.r(C)p.r(A)p.r(C)p.d(T)p.d(G)}$$$RNA1{StrandType:ss}|RNA2{StrandType:as}$	100
RNA1{r(G)p.r(U)p.r(U)p.r(U)p.r(C)p.r(A)p.r(U)p.r(U)p.r(G)p.r(G)p.r(C)p.r(A)p.r(A)p.r(G)p.r(C)p.r(C)p.r(A)p.r(C)p.r(A)p.d(T)p.d(T)}|RNA2{r(U)p.r(G)p.r(U)p.r(G)p.r(G)p.r(C)p.r(U)p.r(U)p.r(G)p.r(C)p.r(C)p.r(A)p.r(A)p.r(U)p.r(G)p.r(A)p.r(A)p.r(A)p.r(C)p.d(A)p.d(T)}$$$RNA1{StrandType:ss}|RNA2{StrandType:as}$	94.9
RNA1{r(U)p.r(A)p.r(A)p.r(G)p.r(A)p.r(U)p.r(C)p.r(A)p.r(C)p.r(A)p.r(G)p.r(U)p.r(G)p.r(G)p.r(U)p.r(C)p.r(G)p.r(C)p.r(C)p.d(T)p.d(T)}|RNA2{r(G)p.r(G)p.r(C)p.r(G)p.r(A)p.r(C)p.r(C)p.r(A)p.r(C)p.r(U)p.r(G)p.r(U)p.r(G)p.r(A)p.r(U)p.r(C)p.r(U)p.r(U)p.r(A)p.d(G)p.d(A)}$$$RNA1{StrandType:ss}|RNA2{StrandType:as}$	55.6
RNA1{r(U)p.r(A)p.r(A)p.r(U)p.r(G)p.r(A)p.r(C)p.r(A)p.r(G)p.r(C)p.r(C)p.r(C)p.r(A)p.r(U)p.r(A)p.r(U)p.r(C)p.r(A)p.r(A)p.d(T)p.d(T)}|RNA2{r(U)p.r(U)p.r(G)p.r(A)p.r(U)p.r(A)p.r(U)p.r(G)p.r(G)p.r(G)p.r(C)p.r(U)p.r(G)p.r(U)p.r(C)p.r(A)p.r(U)p.r(U)p.r(A)p.d(G)p.d(G)}$$$RNA1{StrandType:ss}|RNA2{StrandType:as}$	97.7
RNA1{r(U)p.r(A)p.r(G)p.r(U)p.r(G)p.r(C)p.r(C)p.r(A)p.r(G)p.r(A)p.r(G)p.r(A)p.r(U)p.r(U)p.r(G)p.r(C)p.r(A)p.r(C)p.r(G)p.d(T)p.d(T)}|RNA2{r(C)p.r(G)p.r(U)p.r(G)p.r(C)p.r(A)p.r(A)p.r(U)p.r(C)p.r(U)p.r(C)p.r(U)p.r(G)p.r(G)p.r(C)p.r(A)p.r(C)p.r(U)p.r(A)p.d(G)p.d(G)}$$$RNA1{StrandType:ss}|RNA2{StrandType:as}$	62.4
RNA1{r(U)p.r(A)p.r(U)p.r(C)p.r(A)p.r(A)p.r(G)p.r(G)p.r(C)p.r(G)p.r(G)p.r(U)p.r(G)p.r(U)p.r(A)p.r(U)p.r(U)p.r(C)p.r(U)p.d(T)p.d(T)}|RNA2{r(A)p.r(G)p.r(A)p.r(A)p.r(U)p.r(A)p.r(C)p.r(A)p.r(C)p.r(C)p.r(G)p.r(C)p.r(C)p.r(U)p.r(U)p.r(G)p.r(A)p.r(U)p.r(A)p.d(T)p.d(G)}$$$RNA1{StrandType:ss}|RNA2{StrandType:as}$	99.5
RNA1{r(U)p.r(A)p.r(U)p.r(G)p.r(G)p.r(G)p.r(A)p.r(C)p.r(C)p.r(U)p.r(A)p.r(A)p.r(U)p.r(G)p.r(A)p.r(C)p.r(A)p.r(G)p.r(C)p.d(T)p.d(T)}|RNA2{r(G)p.r(C)p.r(U)p.r(G)p.r(U)p.r(C)p.r(A)p.r(U)p.r(U)p.r(A)p.r(G)p.r(G)p.r(U)p.r(C)p.r(C)p.r(C)p.r(A)p.r(U)p.r(A)p.d(A)p.d(T)}$$$RNA1{StrandType:ss}|RNA2{StrandType:as}$	44.4
